Test results published in publication PMC5742776 (Foods, 2017).

Columns and labels:
Format in all cases: biochemical
[1] = tested on: angiotensin-I-converting enzyme (ACE-I; EC 3.4.15.1); assay: ACE-I inhibition assay (ACE Kit-WST); details: 1 mg/mL, 37 °C, 1 h, absorbance 450 nm
Procedure: Protein isolates from all seven oat varieties and selected synthesised peptides were tested in vitro for ACE-I inhibition. The bioassay (ACE Kit—WST, Dojindo Laboratories, Kumamoto, Japan) was carried out according to the manufacturer’s instructions. First, 20 μL of each sample inhibitor at a concentration of 1 mg/mL ddH2O was added to 20 μL substrate and 20 μL enzyme working solution in triplicate. Samples were incubated at 37 °C for 1 h. Each well then had 200 μL indicator working solution added, followed by a further incubation at room temperature for 10 min. Absorbance at 450 nm was read using a FLUOstar Omega microplate reader (BMG LABTECH GmbH, Offenburg, Germany). The percentage inhibition was calculated using the following equation:% ACE-I inhibition = 100% Initial activity − Inhibitor × 100/100% Initial activity(2)

[2] = tested on: dipeptidyl peptidase-IV (DPP-IV; EC 3.4.14.5); details: synthesised peptides, 1 mg/mL; 10 μL sample at 1 mg/mL assay buffer + 30 μL buffer, 10 μL DPP-IV, 50 μL substrate; 37 °C, 30 min; fluorescence 355/460 nm; mean of triplicate samples
Procedure: Protein isolates from all seven oat varieties and selected synthesised peptides were tested in vitro for DPP-IV inhibition. […] First, 10 μL of each sample inhibitor at a concentration of 1 mg/mL assay buffer was added to 30 μL diluted assay buffer, 10 μL diluted DPP-IV, and 50 μL substrate solution, in triplicate. Samples were incubated at 37 °C for 30 min. Fluorescence was read with excitation wavelengths of 355 nm and emission wavelengths of 460 nm using a FLUOstar Omega microplate reader (BMG LABTECH GmbH, Offenburg, Germany). The percentage inhibition was calculated using the following equation:% DPP-IV inhibition = 100% Initial activity − Inhibitor × 100/100% Initial activity (3)

[3] = tested on: renin (EC 3.4.23.15); assay: Renin Inhibition Screening Assay; details: synthesised peptides, 1 mg/mL; 10 μL sample at 1 mg/mL DMSO + 20 μL substrate, 150 μL buffer, 10 μL renin; 37 °C, 15 min; fluorescence 340/500 nm; mean of triplicate samples
Procedure: Protein isolates from all seven oat varieties and selected synthesised peptides were tested in vitro for renin inhibition activity. The Renin Inhibition Screening Assay (Cambridge BioSciences, Cambridge, UK) was carried out as per the manufacturer’s instructions. Briefly, 10 μL of each sample inhibitor at a concentration of 1 mg/mL dimethyl sulfoxide (DMSO) was added to 20 μL renin substrate, 150 μL assay buffer, and 10 μL renin, in triplicate. The samples were incubated at 37 °C for 15 min, and read with excitation wavelengths of 340 nm and emission wavelengths of 500 nm. Fluorescence was read using a FLUOstar Omega microplate reader (BMG LABTECH GmbH, Offenburg, Germany). The percentage inhibition was calculated using the following equation:% Renin inhibition = 100% Initial activity − Inhibitor × 100/100% Initial activity (1)

[4] = synthesised peptides, 20 μL sample at 1 mg/mL ddH2O + 20 μL substrate, 20 μL enzyme, mean of triplicate samples

Row | Compound | % ACE-I inhibition [1, 4] [%] | other results
1 | C[C@H](CS)C(=O)N1CCC[C@H]1C(=O)O [captopril, reference compound] |  | % ACE-I inhibition ([1]; positive control, triplicate): 97.7% (±23.2%)
2 | FEPL [chemically synthesised peptide; 12S globulin f(53–56), papain] | 48.9 ± 7.8 | 
3 | FLLA [chemically synthesised peptide; 11S globulin/12S globulin f(203–206), papain] | 97 ± 16.2 | 
4 | FPIL [chemically synthesised peptide; 11S globulin f(364–367), ficin] |  | % DPP-IV inhibition [2]: 13.1 ± 3.2%
5 | IFFFL [chemically synthesised peptide; Avenin f(3–7), ficin] | 53 ± 41.2 | % Renin inhibition [3]: 17.1% (±2.6%)
